# Experimental data as given in ChEMBL document CHEMBL3885861, “Open TG-GATES”.
# Organism: Rattus norvegicus
# Test: Open TG-GATES - Regimen: Single
# Format: toxicity, organism-based, Sprague-Dawley
# Design: regimen Single, gender Male, age 6 weeks
# Conditions: in vivo, po, 300 mg/kg, route gavage, dose level Low; for APTT / Bas / Eos / Fbg / Hb / Ht / Lym / MCH / MCHC / MCV / Mono / Neu / PT / Plat / RBC / Ret / WBC: tissue Blood; for KIDNEY_L / KIDNEY_R / KIDNEY_TOTAL: tissue Kidney; for LIVER: tissue Liver; for A/G / ALP / ALT / AST / BUN / CRE / Ca / Cl / DBIL / GLC / IP / K / LDH / Na / PL / RALB / TBIL / TC / TG / TP / gamma-GTP: tissue Plasma
compound,measurement,setting,value
COc1ccc(O)c(C(C)(C)C)c1.COc1ccc(O)cc1C(C)(C)C [BUTYLATED HYDROXYANISOLE],TERMINAL_BW,3 h,204.6 g
same,APTT,3 h,16.4 s
same,Bas,3 h,0.2%
same,Eos,3 h,0.6%
same,Fbg,3 h,281.2 mg/dL
same,Hb,3 h,13.8 g/dL
same,Ht,3 h,39.9%
same,Lym,3 h,75%
same,MCH,3 h,21.7 pg
same,MCHC,3 h,34.5%
same,MCV,3 h,63.1 fL
same,Mono,3 h,2.5%
same,Neu,3 h,20.7%
same,PT,3 h,12 s
same,Plat,3 h,133.9 x10_4/uL
same,RBC,3 h,633.4 x10_4/ul
same,Ret,3 h,8.1%
same,WBC,3 h,97.5 x10_2/uL
same,KIDNEY_L,3 h,0.9 g
same,KIDNEY_R,3 h,0.9 g
same,KIDNEY_TOTAL,3 h,1.8 g
same,LIVER,3 h,8.5 g
same,A/G,3 h,0.8
same,ALP,3 h,1752.8 IU/L
same,ALT,3 h,41.8 IU/L
same,AST,3 h,75.4 IU/L
same,BUN,3 h,10.2 mg/dL
same,CRE,3 h,0.2 mg/dL
same,Ca,3 h,11.3 mg/dL
same,Cl,3 h,107.8 meq/L
same,DBIL,3 h,0.052 mg/dL
same,GLC,3 h,173.2 mg/dL
same,IP,3 h,9.1 mg/dL
same,K,3 h,3.9 meq/L
same,LDH,3 h,75.6 IU/L
same,Na,3 h,141.8 meq/L
same,PL,3 h,154.4 mg/dL
same,RALB,3 h,2.7 g/dL
same,TBIL,3 h,0.082 mg/dL
same,TC,3 h,80.8 mg/dL
same,TG,3 h,149.4 mg/dL
same,TP,3 h,5.8 g/dL
same,gamma-GTP,3 h,1 IU/L
same,TERMINAL_BW,6 h,202.1 g
same,APTT,6 h,16.2 s
same,Bas,6 h,0.2%
same,Eos,6 h,0.7%
same,Fbg,6 h,257.2 mg/dL
same,Hb,6 h,13.3 g/dL
same,Ht,6 h,39.1%
same,Lym,6 h,72%
same,MCH,6 h,21.2 pg
same,MCHC,6 h,33.9%
same,MCV,6 h,62.4 fL
same,Mono,6 h,2.5%
same,Neu,6 h,23.7%
same,PT,6 h,12.3 s
same,Plat,6 h,131.2 x10_4/uL
same,RBC,6 h,627.4 x10_4/ul
same,Ret,6 h,7.7%
same,WBC,6 h,91.5 x10_2/uL
same,KIDNEY_L,6 h,0.9 g
same,KIDNEY_R,6 h,0.9 g
same,KIDNEY_TOTAL,6 h,1.8 g
same,LIVER,6 h,7.9 g
same,A/G,6 h,0.9
same,ALP,6 h,1829.2 IU/L
same,ALT,6 h,38 IU/L
same,AST,6 h,72.8 IU/L
same,BUN,6 h,9.4 mg/dL
same,CRE,6 h,0.2 mg/dL
same,Ca,6 h,11.1 mg/dL
same,Cl,6 h,107.8 meq/L
same,DBIL,6 h,0.03 mg/dL
same,GLC,6 h,172.4 mg/dL
same,IP,6 h,10.3 mg/dL
same,K,6 h,4.2 meq/L
same,LDH,6 h,60.2 IU/L
same,Na,6 h,143.2 meq/L
same,PL,6 h,134.4 mg/dL
same,RALB,6 h,2.6 g/dL
same,TBIL,6 h,0.074 mg/dL
same,TC,6 h,75 mg/dL
same,TG,6 h,65.8 mg/dL
same,TP,6 h,5.7 g/dL
same,gamma-GTP,6 h,1.4 IU/L
same,TERMINAL_BW,9 h,199.4 g
same,APTT,9 h,16.9 s
same,Bas,9 h,0.2%
same,Eos,9 h,0.7%
same,Fbg,9 h,273.6 mg/dL
same,Hb,9 h,13.4 g/dL
same,Ht,9 h,39.1%
same,Lym,9 h,76.3%
same,MCH,9 h,20.7 pg
same,MCHC,9 h,34.3%
same,MCV,9 h,60.5 fL
same,Mono,9 h,1.9%
same,Neu,9 h,20.1%
same,PT,9 h,13.1 s
same,Plat,9 h,145.3 x10_4/uL
same,RBC,9 h,647.4 x10_4/ul
same,Ret,9 h,7.4%
same,WBC,9 h,69.4 x10_2/uL
same,KIDNEY_L,9 h,0.9 g
same,KIDNEY_R,9 h,0.9 g
same,KIDNEY_TOTAL,9 h,1.7 g
same,LIVER,9 h,7.5 g
same,A/G,9 h,0.8
same,ALP,9 h,1688.6 IU/L
same,ALT,9 h,30.6 IU/L
same,AST,9 h,66.4 IU/L
same,BUN,9 h,8.2 mg/dL
same,CRE,9 h,0.2 mg/dL
same,Ca,9 h,10.8 mg/dL
same,Cl,9 h,108 meq/L
same,DBIL,9 h,0.026 mg/dL
same,GLC,9 h,163.8 mg/dL
same,IP,9 h,10.1 mg/dL
same,K,9 h,4 meq/L
same,LDH,9 h,48.4 IU/L
same,Na,9 h,142.8 meq/L
same,PL,9 h,134.6 mg/dL
same,RALB,9 h,2.6 g/dL
same,TBIL,9 h,0.088 mg/dL
same,TC,9 h,77.4 mg/dL
same,TG,9 h,66 mg/dL
same,TP,9 h,5.6 g/dL
same,gamma-GTP,9 h,1.4 IU/L
same,TERMINAL_BW,24 h,215.1 g
same,APTT,24 h,15.4 s
same,Bas,24 h,0.3%
same,Eos,24 h,0.7%
same,Fbg,24 h,256.6 mg/dL
same,Hb,24 h,13 g/dL
same,Ht,24 h,38%
same,Lym,24 h,82.1%
same,MCH,24 h,21.3 pg
same,MCHC,24 h,34.1%
same,MCV,24 h,62.3 fL
same,Mono,24 h,2.3%
same,Neu,24 h,13.9%
same,PT,24 h,12 s
same,Plat,24 h,142.8 x10_4/uL
same,RBC,24 h,610.6 x10_4/ul
same,Ret,24 h,6.9%
same,WBC,24 h,97.1 x10_2/uL
same,KIDNEY_L,24 h,0.9 g
same,KIDNEY_R,24 h,0.9 g
same,KIDNEY_TOTAL,24 h,1.8 g
same,LIVER,24 h,9.6 g
same,A/G,24 h,0.9
same,ALP,24 h,1667 IU/L
same,ALT,24 h,47.2 IU/L
same,AST,24 h,79 IU/L
same,BUN,24 h,15 mg/dL
same,CRE,24 h,0.2 mg/dL
same,Ca,24 h,11.4 mg/dL
same,Cl,24 h,106.4 meq/L
same,DBIL,24 h,0.028 mg/dL
same,GLC,24 h,166.4 mg/dL
same,IP,24 h,7.8 mg/dL
same,K,24 h,4.2 meq/L
same,LDH,24 h,63 IU/L
same,Na,24 h,143.2 meq/L
same,PL,24 h,135.2 mg/dL
same,RALB,24 h,2.7 g/dL
same,TBIL,24 h,0.078 mg/dL
same,TC,24 h,78.2 mg/dL
same,TG,24 h,110.2 mg/dL
same,TP,24 h,5.7 g/dL
same,gamma-GTP,24 h,1 IU/L
